Reference: patent publication US12590121B2, “Peptide compound with repetitive sequences” (KING ABDULLAH UNIVERSITY OF SCIENCE AND TECHNOLOGY, priority 2020, dated 2026)
Non-standard residues stand in square brackets, D forms with d. Residues, ends and D or L forms follow the SMILES beside them. Cha = N[C@@H](CC1CCCCC1)C(=O)O

What was measured:
[1] = Viscoelastic characterization: mechanical stiffness of peptide hydrogels (rheometer); type: physicochemical
Protocol: The viscoelastic characteristics of peptide hydrogels, including the mechanical stiffness and viscosity, are analyzed using TA Ares-G2 Rheometer equipped with advanced Peltier system (APS). The mechanical stiffness of the peptide gels is measured using an 8 mm parallel plate with a gap of 1.8 mm, between the upper and lower plates, and at 22° C. The hydrogels are prepared, one day before the measurement, by mixing 135 μl of peptide solution, and 15 μl of 10×PBS inside a 9 mm internal diameter Sigmacote® coated glass casting ring. The rings are then kept inside Petri dishes at room temperature with water surrounding and tightly sealed to avoid dehydration. For each peptide, six replicates are prepared to control the accuracy of the measurements. The stiffness is analyzed through three successive tests, which are time-sweep, frequency-sweep, and amplitude-sweep. Time-sweep is first performed for 5 minutes with angular frequency and a strain of 1 rad/s and 0.1%, respectively. A frequency sweep is subsequently performed on the sample for a range of angular frequency of 0.1-100 rad/s with the same strain of 0.1%. The tests are completed with the amplitude sweep by applying a gradual increase of strain from 0.01% to 100% at 1 rad/s angular frequency.

[2] = Viscosity of peptide solution before and after gelation (rheometer, flow experiment); type: physicochemical
Protocol: The viscosity of the peptide solution before and after gelation is determined using the same rheometer, 25 mm parallel plate geometry, and a gap of 0.5 mm at 25° C. For the peptide solution, 250 μl of 13 mg/mL peptide solution is dropped on the Peltier plate and measured. For peptide gel samples, the peptide solution and 10×PBS buffer are mixed with the ratio of 1:10 on the Peltier plate and directly measured. The flow experiment is set up by starting the shear rate from 0.1 to 1500 s-1 for a 200-seconds duration. The value of the shear rate that we choose for our printing system is calculated using the equation below: 51
[formula] • γ: shear rate (s−1); Q: flow rate (95 μL/s); d: diameter of needle (0.514 mm).

[3] = system: human dermal fibroblasts (hDF); type: cell-based
Protocol: hDF is used in bioprinting experiments. Each cell type is cultured in its complete growth media, as described before, and cells at passages 4-8 are used in printing experiments. For bioprinting, hDF is mixed with PBS at a final concentration of 5×10^6 and 8×10^6 cells/ml, respectively, and loaded into the microfluidic tubing of the robotic arm bioprinter. In the printing process, the flow rates are 10 μl/min, 55 μl/min, and 8 μl/min for cells, peptide solution, and 5×PBS, respectively. Different cell-laden structures are printed including cuboids with 10 mm edges and 2.6 mm height, and cylinders with 10 mm diameter, and a height of 10 mm. After printing, the printed cell-laden constructs are placed in the CO2 incubator for 5 min before the addition of complete growth media. The printed cell-laden constructs are placed in standard conditions (37° C., 5% CO2, and 95% relative humidity), and the media are changed every three days.
LIVE/DEAD® Cell Viability/Cytotoxicity Kit (ThermoFisher®, USA) is used to assess the viability of cells within the 3D printed constructs. The same protocol, as described earlier, is followed except for increasing the incubation time to 1 hour. The viability of cells is assessed immediately after printing, within 1 hour, designated as day 0 and at days 3, 7, 17 and 24 post-printing. For each time point, two cell-laden constructs are analyzed, and images are taken from different areas of the construct, including the center, edges, top, and bottom. Stained printed cell-laden constructs are imaged using an inverted laser scanning confocal microscope (Zeiss™ LSM 880 Inverted Confocal Microscope, Germany). The number of live and dead cells are counted using imageJ software, and the percentage of cell viability is calculated as the average ratio of live to total cells.

[4] = Peptide gelation studies (vial inversion method); type: physicochemical; details: for gelation time: 1×PBS buffer; for minimum gelation concentration: as used for 3D cell culture
Protocol: The peptide powder is dissolved in 0.90 mL of Milli-Q® water and vortexed until a clear and homogeneous solution is observed. Then 0.10 mL of 10×PBS buffer (w/o Ca^2+ and Mg^2+) is added to the peptide solution. The glass vial is kept undisturbed, and the hydrogel formation is observed using the vial inversion method. The time and minimum concentration at which each peptide has formed a hydrogel are noted.

[5] = gel, 13 mg/ml, shear rate 29.7 s^−1

Compound | Loss Modulus (G′) ([1]; 1 mg/mL hydrogel) [kPa] | Storage Modulus (G′) ([1]; 1 mg/mL hydrogel) [kPa] | tan δ (G″/G′) ([1]; 1 mg/mL hydrogel) | Loss Modulus (G′) ([1]; 2 mg/mL hydrogel) [kPa] | Storage Modulus (G′) ([1]; 2 mg/mL hydrogel) [kPa] | tan δ (G″/G′) ([1]; 2 mg/mL hydrogel) | Loss Modulus (G′) ([1]; 5 mg/mL hydrogel) [kPa] | Storage Modulus (G′) ([1]; 5 mg/mL hydrogel) [kPa] | tan δ (G″/G′) ([1]; 5 mg/mL hydrogel) | Loss Modulus (G′) ([1]; 8 mg/mL hydrogel) [kPa] | Storage Modulus (G′) ([1]; 8 mg/mL hydrogel) [kPa] | tan δ (G″/G′) ([1]; 8 mg/mL hydrogel) | Loss Modulus (G′) ([1]; 10 mg/mL hydrogel) [kPa] | Storage Modulus (G′) ([1]; 10 mg/mL hydrogel) [kPa] | gelation time ([4]; 1 mg/ml) | gelation time ([4]; 10 mg/ml) | gelation time ([4]; 2 mg/ml) [min] | gelation time ([4]; 3 mg/ml) [min] | gelation time ([4]; 5 mg/ml) [min] | gelation time ([4]; 20 mg/ml) [min] | further results
CC[C@H](C)[C@H](NC(C)=O)C(=O)N[C@H](C(=O)N[C@@H](Cc1ccccc1)C(=O)N[C@@H](CCCCN)C(N)=O)[C@@H](C)CC [IIFK, Ac-Ile-Ile-Phe-Lys-NH2] (Ac-IIFK-NH2) | 0.13 ± 0.04 | 1.25 ± 0.86 | 0.10 | 1.31 ± 0.12 | 14.45 ± 1.37 | 0.09 | 2.39 ± 0.11 | 27.26 ± 1.30 | 0.09 | 5.00 ± 0.31 | 49.74 ± 5.02 | 0.10 | 9.04 ± 0.56 | 94.18 ± 7.12 | less than 2.5 h | less than 3 min | – | – | – | – | tan δ (G″/G′) ([1]; 10 mg/mL hydrogel): 0.10; Loss Modulus (G′) ([1]; 13 mg/mL hydrogel): 8.90 ± 0.36 kPa; Storage Modulus (G′) ([1]; 13 mg/mL hydrogel): 108.21 ± 5.02 kPa; tan δ (G″/G′) ([1]; 13 mg/mL hydrogel): 0.08; Viscosity [2, 5]: 0.56 Pa · s; Viscosity ([2]; solution, 13 mg/mL): 0.09 Pa · s; cell viability in the center versus the edge of the filled cube structure [3]: no difference; minimum gelation concentration [4]: 2 mg/mL
CC[C@H](C)[C@H](NC(C)=O)C(=O)N[C@H](C(=O)N[C@@H](CC1CCCCC1)C(=O)N[C@@H](CCCCN)C(N)=O)[C@@H](C)CC [IIZK, Ac-Ile-Ile-Cha-Lys-NH2] (Ac-II[Cha]K-NH2) | 0.88 ± 0.04 | 6.52 ± 0.18 | 0.13 | 2.02 ± 0.09 | 16.82 ± 0.72 | 0.12 | 7.08 ± 0.59 | 64.74 ± 4.89 | 0.11 | 10.91 ± 0.44 | 89.40 ± 1.86 | 0.12 | 15.54 ± 0.68 | 134.04 ± 5.99 | less than 7 min | – | – | – | – | – | tan δ (G″/G′) ([1]; 10 mg/mL hydrogel): 0.12; Loss Modulus (G′) ([1]; 13 mg/mL hydrogel): 37.76 ± 2.38 kPa; Storage Modulus (G′) ([1]; 13 mg/mL hydrogel): 271.34 ± 35.09 kPa; tan δ (G″/G′) ([1]; 13 mg/mL hydrogel): 0.14; Viscosity [2, 5]: 0.47 Pa · s; Viscosity ([2]; solution, 13 mg/mL): 0.03 Pa · s; cell viability in the center versus the edge of the filled cube structure [3]: slightly lower; minimum gelation concentration [4]: 1 mg/mL
CC[C@H](C)[C@H](NC(C)=O)C(=O)N[C@@H](CC1CCCCC1)C(=O)N[C@@H](CC1CCCCC1)C(=O)N[C@@H](CCCCN)C(N)=O [IZZK, Ac-Ile-Cha-Cha-Lys-NH2] (Ac-I[Cha][Cha]K-NH2) | 0.36 ± 0.08 | 3.71 ± 0.19 | 0.10 | 1.44 ± 0.07 | 15.53 ± 0.74 | 0.09 | 11.60 ± 0.51 | 85.87 ± 6.50 | 0.14 | 29.70 ± 1.54 | 193.09 ± 10.13 | 0.15 | 39.71 ± 1.50 | 222.13 ± 8.16 | – | – | – | – | – | – | tan δ (G″/G′) ([1]; 10 mg/mL hydrogel): 0.18; Loss Modulus (G′) ([1]; 13 mg/mL hydrogel): 54.56 ± 1.46 kPa; Storage Modulus (G′) ([1]; 13 mg/mL hydrogel): 314.91 ± 10.10 kPa; tan δ (G″/G′) ([1]; 13 mg/mL hydrogel): 0.17; Viscosity [2, 5]: 0.48 Pa · s; Viscosity ([2]; solution, 13 mg/mL): 0.06 Pa · s; cell viability in the center versus the edge of the filled cube structure [3]: slightly lower
FFFK: ultrashort amphiphilic peptide, one-letter amino acid sequence (Ac-FFFK-NH2) | – | – | – | – | – | – | – | – | – | – | – | – | – | – | – | <2 min | <15 | <10 | <5 | – | gelation time ([4]; 4 mg/ml): <5 min; gelation time (in words) ([4]; 20 mg/ml): simultaneously
FFIK: ultrashort amphiphilic peptide, one-letter amino acid sequence (Ac-FFIK-NH2) | – | – | – | – | – | – | – | – | – | – | – | – | – | – | – | <5 min | <10 | <10 | <5 | <5 | gelation (in words) ([4]; 1 mg/ml, in 1 h): Does not gel
FIIK: ultrashort amphiphilic peptide, one-letter amino acid sequence (Ac-FIIK-NH2) | – | – | – | – | – | – | – | – | – | – | – | – | – | – | <15 min | <5 min | <5 | <10 | <10 | <5 | gel quality (in words) ([4]; 1 mg/ml): Soft gel
IFFK: ultrashort amphiphilic peptide, one-letter amino acid sequence (Ac-IFFK-NH2) | – | – | – | – | – | – | – | – | – | – | – | – | – | – | >60 min | <5 min | <10 | <5 | <5 | <5 | gel quality (in words) ([4]; 1 mg/ml): Slightly; gelation time ([4]; 4 mg/ml): <5 min
ZIIK: ultrashort amphiphilic peptide, one-letter sequence; Z is cyclohexylalanine (Ac-[Cha]IIK-NH2; SMILES CC[C@H](C)[C@H](NC(=O)[C@H](CC1CCCCC1)NC(C)=O)C(=O)N[C@H](C(=O)N[C@@H](CCCCN)C(N)=O)[C@@H](C)CC) | – | – | – | – | – | – | – | – | – | – | – | – | – | – | <60 min | <5 min | <10 | – | <10 | <5 | gel quality (in words) ([4]; 1 mg/ml): Very soft gel
